Data published in PubChem BioAssay (NCI).
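Cultured in 96-well plates, cells were exposed to test compound for 48 hours across five concentrations. TGI is the concentration that stops growth completely.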

Columns and labels:
Assay in all cases: growth of human tumour cells (NCI), 48 h
DU-145 prostate = tested on: DU-145 prostate
HCT-116 colon = tested on: HCT-116 colon
HT29 colon = tested on: HT29 colon
MDA-MB-435 = tested on: MDA-MB-435
NCI-H226 lung = tested on: NCI-H226 lung
NCI-H522 lung = tested on: NCI-H522 lung
OVCAR-5 ovarian = tested on: OVCAR-5 ovarian
RPMI-8226 leukemia = tested on: RPMI-8226 leukemia
SF-295 CNS = tested on: SF-295 CNS
SK-MEL-2 melanoma = tested on: SK-MEL-2 melanoma
SR leukemia = tested on: SR leukemia

Row | Compound | TGI (DU-145 prostate) [µM] | TGI (HCT-116 colon) [µM] | TGI (HT29 colon) [µM] | TGI (MDA-MB-435) [µM] | TGI (NCI-H226 lung) [µM] | TGI (NCI-H522 lung) [µM] | TGI (OVCAR-5 ovarian) [µM] | TGI (RPMI-8226 leukemia) [µM] | TGI (SF-295 CNS) [µM] | TGI (SK-MEL-2 melanoma) [µM] | TGI (SR leukemia) [µM]
1 | COC(=O)c1ccccc1C1CN=NC12Cc1cccc(C)c1C2=O (centres undefined) | > 100 | > 100 | > 100 | > 100 | > 100 | > 100 | > 100 | > 100 | > 100 | > 100 | > 100
2 | CC(C)C1CC[C@H](C)C[C@@H]1OC(=O)C(C(=O)O[C@H]1C[C@@H](C)CCC1C(C)C)C(O)[C@@H]1OC(C)(C)O[C@H]1C1COC(C)(C)O1 (some centres undefined) | 44.5 | 23.9 | 32.2 | 32 | 41.2 | 3.95 | 31.9 | 44.6 | 32.6 | 38.2 | 34.9
3 | O=C(N/N=C\c1ccccc1)Nc1cccc2ccccc12 | > 100 | > 100 | 69.9 | > 100 | 83.6 | > 100 | > 100 | > 100 | 77.1 | 95.3 | > 100
4 | COc1cc2c(cc1OC)-c1cc3cc(OC)c(OC)cc3c(=O)n1CC2 | > 51.5 | > 53.4 | > 100 | > 100 | > 85.9 | > 25.7 | > 100 | 47.2 | > 100 | > 72.9 | > 100
5 | NC1CC(=O)c2sccc21 (centres undefined) | > 100 | > 100 | > 100 | > 100 | > 100 | > 100 | > 100 | > 100 | > 100 | 79.3 | > 100
6 | Clc1nc(Cl)c(CBr)c(Cl)n1 | 30.6 | 5.55 | 32.9 | 17 | > 51.7 | 2.92 | 15 | 4.06 | 16.1 | 43.1 | > 100
7 | C#CC(O)/C=C/C(O)CCCC(O)CC#CC(O)C#CC(O)CCCC(O)/C=C/CCCC(=O)CCCCCCCCCCCCCCCC(O)C(O)C#CC(=O)O (centres undefined) | > 50 | > 50 | > 50 | > 50 | > 50 | 17.5 | > 50 | > 50 | > 50 | > 50 | > 50
8 | Clc1ncc(Cl)c(Cl)n1 | 24.1 | 8.01 | 3.02 | 7.52 | 19 | 5.69 | 34.2 | 6.47 | 26.6 | 6.08 | 5.62
9 | N=c1c2c(=S)n(-c3ccccc3)c(=S)n(-c3ccccc3)c2nc(SCCN2CCOCC2)n1-c1ccccc1 | 3.22 | 3.45 | 4.03 | 3.4 | 15.5 | 3.16 | 33.9 | 3.97 | 19.2 | 8.17 | 2.79
